According to article PMC7216583 (Parasites & Vectors, 2020):
Where a name gives a salt, the structure may show the parent alone. Read-outs that look alike come from different tables or passages of the source.

System: Toxoplasma gondii RH-2F tachyzoites
Test: microbe, parasite or virus in culture
Conditions: 72 h
[1] = read-out: Parasite inhibition (%) mean, preliminary screen, mean
[2] = read-out: Parasite inhibition (%) mean, preliminary screen of compound library, mean
[3] = read-out: Parasite inhibition (%) mean

Structure (SMILES) | inhibition of growth at 5 µM [1] | inhibition of growth at 5 µM [2] | other results
CCCCCCOC(=O)/N=C(/N)c1ccc(NCc2nc3cc(C(=O)N(CCC(=O)OCC)c4ccccn4)ccc3n2C)cc1 | 1.2% |  | 
CC=CC1=C(C(=O)O)N2C(=O)[C@@H](NC(=O)[C@H](N)c3ccc(O)cc3)[C@H]2SC1 (mixture of isomers) [Cefprozil hydrate (Cefzil)] |  | 12.3% | 
CC1COC2(CCN(c3nc(=O)c4cc(C(F)(F)F)cc([N+](=O)[O-])c4s3)CC2)O1 (racemic) [BTZ043 racemate] | -5.8% |  | 
CNCC(O)c1ccc(O)c(O)c1 (racemic) [DL-Adrenaline] |  |  | inhibition of growth at 5 µM [3]: 1.5%
Nc1ncnc2c1c(-c1cccc(OCc3ccccc3)c1)cn2C1CC(CN2CCCC2)C1 (stereo in doubt) [NVP-ADW742] | 48.9% |  | 
NCC(=O)CCC(=O)O [5-Aminolevulinic acid hydrochloride] |  | 20.1% | 
NC(Cc1c[nH]c2ccc(O)cc12)C(=O)O (centres unmarked) [5-hydroxytryptophan (5-HTP)] |  | 0% | 
NC[C@H](CC(=O)O)c1ccc(Cl)cc1 [(R)-baclofen] |  | 23.1% | 
Cc1nc(NC(=O)N2CCC[C@H]2C(N)=O)sc1-c1csc(C(C)(C)C)n1 [A66] |  | 0.9% | 
COc1ccc(S(=O)(=O)Nc2cccnc2Nc2ccc(O)cc2)cc1 [ABT-751] | 22.7% |  | 
C[C@]1(c2nc3c(C(N)=O)cccc3[nH]2)CCCN1 [ABT-888 (Veliparib)] | 50.5% |  | 
C[C@@H](NCCCc1cccc(C(F)(F)F)c1)c1cccc2ccccc12 [AMG-073 HCl (Cinacalcet HCl)] | -0.4% |  | 
C[C@@H](NCCCc1cccc(C(F)(F)F)c1)c1cccc2ccccc12 [AMG-073 HCl (Cinacalcet hydrochloride)] |  | 2.4% | 
CNC(=O)c1ccc(N2C(=S)N(c3cnc(C#N)c(C(F)(F)F)c3)C(=O)C23CCC3)cc1F [ARN-509] |  | 28.7% | 
O=C(NC[C@H](O)CO)c1ccncc1Nc1ccc(I)cc1F [AS703026 (pimasertib)] | -20.8% |  | 
O=C1NC(=O)/C(=C/c2ccc3c(c2)OC(F)(F)O3)S1 [AS-604850] |  | 0.8% | 
Nc1ncnc2c1ncn2[C@@H]1O[C@@H](COP(=O)(O)OP(=O)(O)OP(=O)(O)O)[C@@H](O)[C@H]1O [ATP (Adenosine-Triphosphate)] |  | -56.8% | 
CNC(=O)c1cccc(-c2ccc3c(N4CCOC[C@@H]4C)nc(N4CCOC[C@@H]4C)nc3n2)c1 [AZD2014] |  | 45.5% | 
Nc1nc2c(ncn2COCCO)c(=O)[nH]1 [Acyclovir (Aciclovir)] |  | -55.5% | 
CC(C)(C)C(=O)OCOP(=O)(COCCn1cnc2c(N)ncnc21)OCOC(=O)C(C)(C)C [Adefovir Dipivoxil (Preveon, Hepsera)] | 0% |  | 
Nc1ncnc2[nH]cnc12 [Adenine HCl] | 22.6% |  | 
Nc1ncnc2nc[nH]c12 [Adenine sulfate] |  |  | inhibition of growth at 5 µM [3]: 11.8%
CNCC(=O)c1ccc(O)c(O)c1 [Adrenalone HCl] |  | 17.8% | 

Structure (SMILES) | inhibition of growth at 5 µM [1] | inhibition of growth at 5 µM [2] | other results
CN(C)C/C=C/C(=O)Nc1cc2c(Nc3ccc(F)c(Cl)c3)ncnc2cc1O[C@H]1CCOC1 [Afatinib (BIBW2992)] | 42.8% |  | 
COc1ccc2cccc(CCNC(C)=O)c2c1 [Agomelatine] | 64.2% |  | 
C=CCc1cc(OC)c(O)c(C(=O)NCCO)c1 [Alibendol] |  | 0.1% | 
O=c1[nH]cnc2[nH]ncc12 [Allopurinol Sodium (Aloprim)] | -0.7% |  | 
CN(C)CCc1c[nH]c2ccc(CS(=O)(=O)N3CCCC3)cc12 [Almotriptan malate (Axert)] | 2% |  | 
Cn1c(=O)cc(N2CCC[C@@H](N)C2)n(Cc2ccccc2C#N)c1=O [Alogliptin (SYR-322)] |  | 44.1% | 
CC1(C)[C@@H](O[C@H]2O[C@H](C(=O)O)[C@@H](O)[C@H](O)[C@@H]2O[C@@H]2O[C@H](C(=O)O)[C@@H](O)[C@H](O)[C@H]2O)CC[C@@]2(C)[C@H]3C(=O)C=C4[C@@H]5C[C@@](C)(C(=O)O)CC[C@]5(C)CC[C@@]4(C)[C@]3(C)CC[C@@H]12 [Ammonium Glycyrrhizinate (AMGZ)] |  | 0.1% | 
CN(C)CCN1C(=O)c2cccc3cc(N)cc(c23)C1=O [Amonafide] | -3.3% |  | 
CC1(C)S[C@@H]2[C@H](NC(=O)[C@H](N)c3ccc(O)cc3)C(=O)N2[C@@H]1C(=O)O [Amoxicillin sodium (Amox)] |  | 9.1% | 
CC(=O)Nc1ccc(OC[C@](C)(O)C(=O)Nc2ccc([N+](=O)[O-])c(C(F)(F)F)c2)cc1 [Andarine (GTX-007)] | -18.7% |  | 
COc1ccc(-n2nc(C(N)=O)c3c2C(=O)N(c2ccc(N4CCCCC4=O)cc2)CC3)cc1 [Apixaban] | 2% |  | 
CCOC(=O)c1c(CSc2ccccc2)n(C)c2cc(Br)c(O)c(CN(C)C)c12 [Arbidol HCl] |  | 2.8% | 
COC(=O)C1=CCCN(C)C1 [Arecoline] |  | -9.5% | 
COc1cc(OC)c(OC)cc1C=O [Asaraldehyde (Asaronaldehyde)] |  | 10.2% | 
CC(C)(O)[C@H]1CC[C@@](C)([C@@H]2[C@@H](O)C[C@@]3(C)[C@@H]4C[C@H](O[C@@H]5O[C@H](CO)[C@@H](O)[C@H](O)[C@@H]5O)[C@H]5C(C)(C)[C@@H](O[C@@H]6OC[C@@H](O)[C@H](O)[C@H]6O)CC[C@@]56C[C@]46CC[C@]23C)O1 [Astragaloside A] |  | 15.5% | 
CC(C)c1cc(C(C)C)c(CC(=O)NS(=O)(=O)Oc2c(C(C)C)cccc2C(C)C)c(C(C)C)c1 [Avasimibe (CI-1011)] | 5.1% |  | 
CC1=C(C(=O)OC(C)C)C(c2cccc([N+](=O)[O-])c2)C(C(=O)OC2CN(C(c3ccccc3)c3ccccc3)C2)=C(N)N1 (centres unmarked) [Azelnidipine] |  | 15.7% | 
CCOc1nc2cccc(C(=O)OCc3oc(=O)oc3C)c2n1Cc1ccc(-c2ccccc2-c2nc(=O)o[nH]2)cc1 [Azilsartan Medoxomil (TAK-491)] |  | 35.5% | 
COc1c(OCCCN2CCOCC2)ccc2c1N=C(NC(=O)c1cnc(N)nc1)N1CCN=C21 [BAY80-6946] |  | 40.8% | 
Cn1c(=O)n(-c2ccc(C(C)(C)C#N)cc2)c2c3cc(-c4cnc5ccccc5c4)ccc3ncc21 [BEZ235 (NVP-BEZ235)] | 5.6% |  | 
CC[C@@H]1C(=O)N(C)c2cnc(Nc3ccc(C(=O)NC4CCN(C)CC4)cc3OC)nc2N1C1CCCC1 [BI 2536] | 0.7% |  | 
Cn1c(CNc2ccc(C(=N)N)cc2)nc2cc(C(=O)N(CCC(=O)O)c3ccccn3)ccc21 [BIBR 953 (Dabigatran etexilate, Pradaxa)] |  | 0.3% | 
C/C(=C\C(=O)Nc1ccccc1C(=O)O)c1ccc2ccccc2c1 [BIBR 1532] | 0.4% |  | 

Structure (SMILES) | inhibition of growth at 5 µM [1] | inhibition of growth at 5 µM [2] | other results
CCCCCCOC(=O)/N=C(/N)c1ccc(NCc2nc3cc(C(=O)N(CCC(=O)OCC)c4ccccn4)ccc3n2C)cc1 [BIBR-1048 (Dabigatran)] |  | 8.4% | 
Cc1ccc(-n2nc(C(C)(C)C)cc2NC(=O)Nc2ccc(OCCN3CCOCC3)c3ccccc23)cc1 [BIRB 796 (Doramapimod)] | 8.9% |  | 
COc1cc2nc(N3CCCN(C)CC3)nc(NC3CCN(Cc4ccccc4)CC3)c2cc1OC [BIX01294] |  | 21.8% | 
Cc1nc(NC(=O)N2CCC[C@H]2C(N)=O)sc1-c1ccnc(C(C)(C)C(F)(F)F)c1 [BYL719] |  | 47.5% | 
CCN(CCO)CCCOc1ccc2c(Nc3cc(CC(=O)Nc4cccc(F)c4)n[nH]3)ncnc2c1 [Barasertib (AZD1152-HQPA)] | 54.4% |  | 
O=C(/C=C/c1cccc(S(=O)(=O)Nc2ccccc2)c1)NO [Belinostat (PXD101)] | 65.8% |  | 
N[C@@H]1CCCCN(c2c(F)cc3c(=O)c(C(=O)O)cn(C4CC4)c3c2Cl)C1 [Besifloxacin HCl (Besivance)] |  | 39.1% | 
C[C@H]1C[C@H]2[C@@H]3CCC4=CC(=O)C=C[C@]4(C)[C@@H]3C(=O)C[C@]2(C)[C@]1(O)C(=O)CO [Betapar (Meprednisone)] |  | 0.9% | 
CC(C)NCC(O)COc1ccc(CCOCC2CC2)cc1 (centres unmarked) [Betaxolol (Betoptic)] |  |  | inhibition of growth at 5 µM [3]: 9.5%
CCNC(=O)CCC/C=C\C[C@@H]1[C@@H](/C=C/[C@@H](O)CCc2ccccc2)[C@H](O)C[C@@H]1O [Bimatoprost] |  | 9% | 
Cc1cc2c(F)c(Oc3ncnn4cc(OC[C@@H](C)O)c(C)c34)ccc2[nH]1 [Brivanib (BMS-540215)] |  |  | inhibition of growth at 5 µM [3]: 49.8%
CN(Cc1ccc(C(C)(C)C)cc1)Cc1cccc2ccccc12 [Butenafine HCl] |  | 7.5% | 
CC[C@H](Nc1ncnc2[nH]cnc12)c1nc2cccc(F)c2c(=O)n1-c1ccccc1 [CAL-101 (GS-1101)] |  | 47.8% | 
CCNC(=O)[C@H]1O[C@@H](n2cnc3c(N)nc(NCCc4ccc(CCC(=O)O)cc4)nc32)[C@@H](O)[C@@H]1O [CGS 21680 HCl] | 0.9% |  | 
CCc1cc2c(cc1N1CCC(N3CCOCC3)CC1)C(C)(C)c1[nH]c3cc(C#N)ccc3c1C2=O [CH5424802] |  | 46.1% | 
O=C(NOCC1CC1)c1ccc(F)c(F)c1Nc1ccc(I)cc1Cl [CI-1040 (PD184352)] | 0.4% |  | 
COc1cc2ncnc(-n3nc(-c4ccccn4)nc3N)c2cc1OC [CP-466722] |  | 2.5% | 
O=C(O)CCCCC(CCSCc1ccccc1)SCc1ccccc1 (centres unmarked) [CPI-613] |  | 31.1% | 
C#Cc1cccc(Nc2ncnc3cc(OC)c(OCCCCCCC(=O)NO)cc23)c1 [CUDC-101] |  |  | inhibition of growth at 5 µM [3]: 46.2%
O=C(O)c1ccc2c(c1)nc(Nc1cccc(Cl)c1)c1ccncc12 [CX-4945 (Silmitasertib)] |  | 1.5% | 
CO[C@H]1C(=O)[C@@]2(C)[C@H]([C@@H](OC(=O)c3ccccc3)[C@@]3(O)C[C@H](OC(=O)[C@H](O)[C@@H](NC(=O)OC(C)(C)C)c4ccccc4)C(C)=C1C3(C)C)[C@]1(OC(C)=O)CO[C@@H]1C[C@H]2OC [Cabazitaxel (Jevtana)] |  | 2.3% | 
Nc1nc(=O)c2c([nH]1)NC[C@H](CNc1ccc(C(=O)N[C@@H](CCC(=O)O)C(=O)O)cc1)N2C=O [Calcium levofolinate (Calcium Folinate)] |  | 0.1% | 
